Reference: publication PMC6934184, “Selective DNA-PKcs inhibition extends the therapeutic index of localized radiotherapy and chemotherapy” (The Journal of Clinical Investigation, 2019)

Molecular target: T1, TEC (Homo sapiens, UniProt P42680)
T1 construct: purchased Thermo Fisher Scientific (Life Technologies) SelectScreen
Experiment: SelectScreen LanthaScreen
Type: binding
Conditions: read-out: % displacement
Procedure, shortened: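 NU5455 was profiled across the SelectScreen Broad panel of kinase activity and binding assays. Z'LYTE reactions such as CSF1R ran at apparent Km ATP, while the Adapta CAMK1 assay used ATP listed as 10. Values are given as percent.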

T1 sequence (P42680 whole entry): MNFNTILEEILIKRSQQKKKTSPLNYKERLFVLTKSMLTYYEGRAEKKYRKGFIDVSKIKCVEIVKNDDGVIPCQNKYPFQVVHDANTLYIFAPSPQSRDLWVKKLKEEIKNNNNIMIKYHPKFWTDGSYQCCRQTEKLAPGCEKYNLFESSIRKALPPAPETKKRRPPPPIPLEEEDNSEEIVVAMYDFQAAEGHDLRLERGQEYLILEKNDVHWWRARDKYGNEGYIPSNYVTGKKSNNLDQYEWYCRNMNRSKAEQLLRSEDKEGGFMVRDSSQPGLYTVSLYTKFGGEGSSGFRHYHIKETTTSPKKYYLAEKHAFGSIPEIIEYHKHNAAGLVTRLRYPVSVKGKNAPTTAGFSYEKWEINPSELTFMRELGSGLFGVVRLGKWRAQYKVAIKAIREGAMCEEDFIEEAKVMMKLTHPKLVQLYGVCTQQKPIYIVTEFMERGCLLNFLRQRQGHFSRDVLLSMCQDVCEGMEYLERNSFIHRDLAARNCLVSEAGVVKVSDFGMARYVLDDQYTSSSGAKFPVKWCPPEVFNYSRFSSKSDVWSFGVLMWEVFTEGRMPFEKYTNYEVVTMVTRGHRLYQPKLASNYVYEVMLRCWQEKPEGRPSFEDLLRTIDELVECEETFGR

CN(C(=O)CN1CCOCC1)c1ccc2sc3c(-c4cccc5c(=O)cc(N6CC7CCC(C6)O7)oc45)cccc3c2c1 [NU5455]
inhibition at 1 µM: 8.1%
